Test results taken from patent US10005736B1, “Pyridine and pyrimidine derivatives” (Hoffmann-La Roche Inc., priority 2015, dated 2018).

Target: T1, human EAAT3 (Homo sapiens, UniProt P43005)
T1 construct: expressed in transfected cells; host or cells: HEK-293
T1 sequence (P43005 1-524): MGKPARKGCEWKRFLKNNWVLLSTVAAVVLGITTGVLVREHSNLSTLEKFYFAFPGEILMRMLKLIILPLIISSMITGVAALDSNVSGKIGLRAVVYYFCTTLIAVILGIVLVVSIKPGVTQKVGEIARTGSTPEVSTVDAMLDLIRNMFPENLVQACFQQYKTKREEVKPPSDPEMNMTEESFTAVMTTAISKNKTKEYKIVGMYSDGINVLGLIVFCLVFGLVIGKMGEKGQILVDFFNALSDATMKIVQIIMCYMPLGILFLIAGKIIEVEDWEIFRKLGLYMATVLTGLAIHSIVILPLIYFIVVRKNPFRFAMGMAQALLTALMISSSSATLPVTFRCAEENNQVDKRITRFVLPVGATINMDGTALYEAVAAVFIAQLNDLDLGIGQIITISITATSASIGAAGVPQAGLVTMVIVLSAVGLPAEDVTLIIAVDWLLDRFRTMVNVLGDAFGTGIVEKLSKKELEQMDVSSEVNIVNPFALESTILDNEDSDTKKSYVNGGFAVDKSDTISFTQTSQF
Assay: FLIPR Membrane Potential (FMP) assay, antagonist potency at human EAAT3
Type: cell-based
Details: HEK-293 cells stably expressing human EAAT3; L-glutamate as agonist at EC80; antagonists applied 15 min before; Kb by Cheng-Prusoff from IC50
Description: The FLIPR Membrane Potential (FMP) Assay
HEK-293 cells stably expressing human EAAT3 were seeded at 55 000 cells/well in growth medium (DMEM glutamate free (Invitrogen 11960-044), 1% Pen Strep (10 ml/1 GIBCO BRL N^o 15140-023), 10% FCS non dialysed heat inactivated, 5 mg/l puromycin) in poly-D-lysine treated 96-well black microtiter plates with clear-bottom. After 24 h, the growth medium was removed and […] of Krebs buffer (140 mM NaCl, 4.7 mM KCl, 2.5 mM CaCl2, 1.2 mM MgCl2, 11 mM HEPES, 10 mM D-glucose, pH=7.4) added. The cells were then loaded by adding 100 μl/well FMP assay dye (FLIPR Membrane Potential assay reagent, Molecular Devices). The 96-well plates were then incubated at 37° C. for 1 h. The depolarization of the cells will cause more dye to enter in the cells, where it will bind to intracellular proteins and lipids and cause an increase in the fluorescence signal. Antagonist potency at human EAAT3 was determined by using L-glutamate as agonist at a concentration which gives 80% of the maximum response. The antagonists were applied 15 min before the application of the agonist L-glutamate. The assays were performed at room temperature and measurements done by using a Fluorometric Imaging Plate Reader (FLIPR, Molecular Devices) and filter #2. Responses were measured as peak increase in fluorescence minus basal (i.e. fluorescence without addition of L-glutamate). Kb was determined using the Cheng-Prusoff equation Kb=IC50/[1+(A/EC50)], where IC50 is the concentration of the antagonist producing 50% inhibition, A is the concentration of the agonist against which the IC50 is being determined (at EC80) and EC50 is the concentration of the agonist producing 50% […].

| Compound | Kb [nM] |
| --- | --- |
| Cc1cc(-c2cc(C(=O)NC(C)(C)C)cc(-c3cncnc3C(C)C)c2)ccc1F [Example 29, N-tert-Butyl-3-(4-fluoro-3-methylphenyl)-5-(4-propan-2-ylpyrimidin-5-yl)-benzamide] | 720 |
| Cc1ncccc1-c1cc(C(=O)NC(C)(C)C2CC2)cc(-c2ccc(Cl)cc2)c1 [Example 17, 3-(4-Chlorophenyl)-N-(2-cyclopropylpropan-2-yl)-5-(2-methylpyridin-3-yl)-benzamide] | 640 |
| Cc1ccncc1-c1cc(C(=O)NC(C)(C)C2CC2)cc(-c2ccc(F)cc2)c1 [Example 23, N-(2-Cyclopropylpropan-2-yl)-3-(4-fluorophenyl)-5-(4-methylpyridin-3-yl)-benzamide] | 78 |
| CC(C)c1ncncc1-c1cc(C(=O)NC2(C)CCS(=O)(=O)C2)cc(-c2ccc(Cl)cc2)c1 (racemic) [Example 12, (RS)-3-(4-Chlorophenyl)-N-(3-methyl-1,1-dioxothiolan-3-yl)-5-(4-propan-2-ylpyrimidin-5-yl)-benzamide] | 310 |
| CC(C)c1ccncc1-c1cc(C(=O)NC(C)(C)C)cc(-c2ccc(Cl)cc2)c1 [Example 9, N-tert-Butyl-3-(4-chlorophenyl)-5-(4-propan-2-ylpyridin-3-yl)-benzamide] | 540 |
| CCC(C)(C)NC(=O)c1cc(-c2ccc(C)cc2)cc(-c2cccnc2C)c1 [Example 5, N-(2-Methylbutan-2-yl)-3-(4-methylphenyl)-5-(2-methylpyridin-3-yl)-benzamide] | 250 |
| CC(C)c1ncncc1-c1cc(C(=O)NC(C)(C)C)cc(-c2ccc(F)cc2)c1 [Example 20, N-tert-Butyl-3-(4-fluorophenyl)-5-(4-propan-2-ylpyrimidin-5-yl)-benzamide] | 81 |
| CC(C)(C)NC(=O)c1cc(-c2ccc(Cl)cc2)cc(-c2cncnc2C2CC2)c1 [Example 39, N-tert-Butyl-3-(4-chlorophenyl)-5-(4-cyclopropyl-pyrimidin-5-yl)-benzamide] | 270 |
| CCC(C)(C)NC(=O)c1cc(-c2ccc(C)cc2)cc(-c2cccnc2C(C)C)c1 [Example 14, N-(2-Methylbutan-2-yl)-3-(4-methylphenyl)-5-(2-propan-2-ylpyridin-3-yl)-benzamide] | 570 |
| CCC(C)(C)NC(=O)c1cc(-c2ccc(C)cc2)cc(-c2cncnc2)c1 [Example 2, N-(2-Methylbutan-2-yl)-3-(4-methylphenyl)-5-pyrimidin-5-ylbenzamide] | 220 |
| Cc1ncccc1-c1cc(C(=O)NC2(C)CCS(=O)(=O)C2)cc(-c2ccc(Cl)cc2)c1 (racemic) [Example 13, (RS)-3-(4-Chlorophenyl)-N-(3-methyl-1,1-dioxothiolan-3-yl)-5-(2-methyl-pyridin-3-yl)-benzamide] | 510 |
| Cc1ncccc1-c1cc(C(=O)NC(C)(C)C(F)(F)F)cc(-c2ccc(Cl)cc2)c1 [Example 19, 3-(4-Chlorophenyl)-5-(2-methylpyridin-3-yl)-N-(1,1,1-trifluoro-2-methylpropan-2-yl)-benzamide] | 340 |
| CCC(C)(C)NC(=O)c1cc(-c2ccc(C)cc2)cc(-c2cnccc2C(C)C)c1 [Example 6, N-(2-Methylbutan-2-yl)-3-(4-methylphenyl)-5-(4-propan-2-ylpyridin-3-yl)-benzamide] | 380 |
| CCC(C)(C)NC(=O)c1cc(-c2ccc(C)cc2)cc(-c2cccnc2)c1 [Example 1, N-(2-Methylbutan-2-yl)-3-(4-methylphenyl)-5-pyridin-3-ylbenzamide] | 325 |
| CCC(C)(C)NC(=O)c1cc(-c2ccc(C)cc2)cc(-c2cncnc2C(C)C)c1 [Example 3, N-(2-Methylbutan-2-yl)-3-(4-methylphenyl)-5-(4-propan-2-ylpyrimidin-5-yl)-benzamide] | 230 |
| CCC(C)(C)NC(=O)c1cc(-c2ccc(C)cc2)cc(-c2cnccc2C)c1 [Example 4, N-(2-Methylbutan-2-yl)-3-(4-methylphenyl)-5-(4-methylpyridin-3-yl)-benzamide] | 290 |
| CC(C)c1ncccc1-c1cc(C(=O)NC(C)(C)C)cc(-c2ccc(Cl)cc2)c1 [Example 15, N-tert-Butyl-3-(4-chlorophenyl)-5-(2-propan-2-ylpyridin-3-yl)-benzamide] | 630 |
| Cc1ccncc1-c1cc(C(=O)NC(C)(C)C)cc(-c2ccc(Cl)cc2)c1 [Example 7, N-tert-Butyl-3-(4-chlorophenyl)-5-(4-methylpyridin-3-yl)-benzamide] | 310 |
| CC(C)c1ncncc1-c1cc(C(=O)NC(C)(C)C2CC2)cc(-c2ccc(Cl)cc2)c1 [Example 16, 3-(4-Chlorophenyl)-N-(2-cyclopropylpropan-2-yl)-5-(4-propan-2-ylpyrimidin-5-yl)-benzamide] | 420 |

System: not given
Assay: not given
Details: not given

| Compound | melting point [°C] |
| --- | --- |
| Cc1cc(-c2cc(C(=O)NC(C)(C)C)cc(-c3cncnc3C(C)C)c2)ccc1F [Example 29, N-tert-Butyl-3-(4-fluoro-3-methylphenyl)-5-(4-propan-2-ylpyrimidin-5-yl)-benzamide] | 83 |
| Cc1ccncc1-c1cc(C(=O)NC(C)(C)C2CC2)cc(-c2ccc(F)cc2)c1 [Example 23, N-(2-Cyclopropylpropan-2-yl)-3-(4-fluorophenyl)-5-(4-methylpyridin-3-yl)-benzamide] | 76 |
| CC(C)c1ccncc1-c1cc(C(=O)NC(C)(C)C)cc(-c2ccc(Cl)cc2)c1 [Example 9, N-tert-Butyl-3-(4-chlorophenyl)-5-(4-propan-2-ylpyridin-3-yl)-benzamide] | 148 |
| CC(C)c1ncncc1-c1cc(C(=O)NC(C)(C)C)cc(-c2ccc(F)cc2)c1 [Example 20, N-tert-Butyl-3-(4-fluorophenyl)-5-(4-propan-2-ylpyrimidin-5-yl)-benzamide] | 79 |
| CC(C)(C)NC(=O)c1cc(-c2ccc(Cl)cc2)cc(-c2cncnc2C2CC2)c1 [Example 39, N-tert-Butyl-3-(4-chlorophenyl)-5-(4-cyclopropyl-pyrimidin-5-yl)-benzamide] | 96 |
| Cc1ncncc1-c1cc(C(=O)NC(C)(C)C)cc(-c2ccc(Cl)cc2)c1 [Example 41, N-tert-Butyl-3-(4-chlorophenyl)-5-(4-methyl-pyrimidin-5-yl)-benzamide] | 192 |
| CC(C)(C)NC(=O)c1cc(-c2ccc(F)c(F)c2)cc(-c2cncnc2C(C)(C)C)c1 [Example 48, N-tert-Butyl-3-(4-tert-butyl-primidin-5-yl)-5-(3,4-difluorophenyl)-benzamide] | 99 |
| CC(C)(C)NC(=O)c1cc(-c2ccc(Cl)cc2)cc(-c2cnccc2C(C)(C)C)c1 [Example 53, N-tert-Butyl-3-(4-tert-butylpyridin-3-yl)-5-(4-chlorophenyl)-benzamide] | 63.5 |
| CC(C)(C)NC(=O)c1cc(-c2ccc(C(F)(F)F)cc2)cc(-c2cncnc2C(C)(C)C)c1 [Example 49, N-tert-Butyl-3-(4-tert-butyl-pyrimidin-5-yl)-5-[4-(trifluoromethyl)-phenyl]-benzamide] | 91 |
| CC(C)c1ncncc1-c1cc(C(=O)NC(C)(C)CO)cc(-c2ccc(F)cc2)c1 [Example 44, 3-(4-Fluorophenyl)-N-(1-hydroxy-2-methylpropan-2-yl)-5-(4-propan-2-yl-pyrimidin-5-yl)-benzamide] | 63 |
| CC(C)(C)NC(=O)c1cc(-c2ccc(Cl)cc2)cc(-c2cncnc2C(C)(C)C)c1 [Example 42, N-tert-Butyl-3-(4-tert-butyl-pyrimidin-5-yl)-5-(4-chlorophenyl)-benzamide] | 108 |
| CC(C)(C)NC(=O)c1cc(-c2ccc(F)cc2)cc(-c2cncnc2C(C)(C)C)c1 [Example 51, N-tert-Butyl-3-(4-tert-butyl-pyrimidin-5-yl)-5-(4-fluorophenyl)-benziimide] | 102 |
| CC(C)c1ncncc1-c1cc(C(=O)NC(C)(C)CO)cc(-c2ccc(Cl)cc2)c1 [Example 43, 3-(4-Chlorophenyl)-N-(1-hydroxy-2-methylpropan-2-yl)-5-(4-propan-2-yl-pyrimidin-5-yl)-benzamide] | 86 |
| CC(C)c1ncncc1-c1cc(C(=O)NC(C)(C)CO)cc(-c2ccc(C(F)(F)F)cc2)c1 [Example 45, N-(1-Hydroxy-2-methylpropan-2-yl)-3-(4-propan-2-yl-pyrimidin-5-yl)-5-[4-(trifluoromethyl)-phenyl]-benzamide] | 80 |
